# Source: ChEMBL document CHEMBL1140816, “Syntheses of tetrahydrothiophenes and tetrahydrofurans and studies of their derivatives as melanocortin-4 receptor ligands” (Bioorg Med Chem Lett, 2008)
# Columns and labels:
# Melanocortin receptor 4 [1] = target: T1, Melanocortin receptor 4 (Homo sapiens, UniProt P32245); assay: Displacement of [125I]NDP-MSH from human MC4R expressed in HEK293 cells; type: cell-based
# Melanocortin receptor 4 [2] = target: T1, Melanocortin receptor 4; assay: Antagonist activity at human MC4R assessed as inhibition of alpha MSH-stimulated cAMP release by cell based assay; type: functional
# Melanocortin receptor 4 [3] = target: T1, Melanocortin receptor 4; assay: Binding affinity at MC4R
# Melanocortin receptor 4 [4] = target: T1, Melanocortin receptor 4; assay: Agonist activity at MC4R; type: functional
# Melanocortin receptor 4 [5] = target: T1, Melanocortin receptor 4; assay: Binding affinity at human MC4R
# T1 sequence (P32245 whole entry): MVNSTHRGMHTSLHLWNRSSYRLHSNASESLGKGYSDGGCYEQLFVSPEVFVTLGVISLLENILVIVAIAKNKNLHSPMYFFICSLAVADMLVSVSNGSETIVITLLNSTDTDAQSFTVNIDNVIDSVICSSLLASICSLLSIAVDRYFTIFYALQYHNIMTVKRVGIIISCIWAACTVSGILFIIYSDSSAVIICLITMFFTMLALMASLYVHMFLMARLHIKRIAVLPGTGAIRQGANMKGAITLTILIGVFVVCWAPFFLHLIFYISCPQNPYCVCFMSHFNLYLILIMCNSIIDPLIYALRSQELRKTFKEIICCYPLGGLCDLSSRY
SMILES,Ki (Melanocortin receptor 4 [1]) [nM],also measured
CC(C)[C@H](NC(=O)CCN(C)C)c1cccc(F)c1N1CCN(C(=O)[C@@H]2CCO[C@@H]2c2ccc(Cl)cc2)CC1,480,
CC(C)[C@H](N)c1cccc(F)c1N1CCN(C(=O)C2COCC2c2ccc(Cl)cc2)CC1 (some centres not stated),790,
CC(C)C[C@H](NC(=O)CCN(C)C)c1cc(C(F)(F)F)ccc1N1CCN(C(=O)[C@H]2C[S+]([O-])C[C@@H]2c2ccc(Cl)cc2)CC1 (some centres not stated),230,
CC(C)C[C@H](NC(=O)CCN(C)C)c1cc(C(F)(F)F)ccc1N1CCN(C(=O)[C@H]2CCO[C@@H]2c2ccc(Cl)cc2)CC1,200,
CC(C)[C@H](N)c1cccc(F)c1N1CCN(C(=O)[C@H]2CCO[C@@H]2c2ccc(Cl)cc2)CC1,1100,
CNCCC(=O)N[C@@H](CC(C)C)c1cc(C(F)(F)F)ccc1N1CCN(C(=O)[C@H]2CSC[C@@H]2c2ccc(Cl)cc2)CC1,170,
CNCC(=O)N[C@@H](CC(C)C)c1cc(C(F)(F)F)ccc1N1CCN(C(=O)[C@H]2CS(=O)(=O)C[C@@H]2c2ccc(Cl)cc2)CC1,180,
Cc1ccc(N2CCN(C(=O)[C@H]3CCO[C@@H]3c3ccc(Cl)cc3)CC2)c([C@@H](N)C(C)C)c1,410,
CC(C)C[C@H](NC(=O)CCN(C)C)c1cc(C(F)(F)F)ccc1N1CCN(C(=O)[C@H]2CS(=O)(=O)C[C@@H]2c2ccc(Cl)cc2)CC1,170,
CC(C)C[C@H](N)c1cc(C(F)(F)F)ccc1N1CCN(C(=O)[C@H]2CSC[C@@H]2c2ccc(Cl)cc2)CC1,280,
CC(C)[C@H](NC(=O)CCN(C)C)c1cccc(F)c1N1CCN(C(=O)[C@H]2CS(=O)(=O)C[C@@H]2c2ccc(Cl)cc2)CC1,380,
CC(C)C[C@H](N)c1cc(C(F)(F)F)ccc1N1CCN(C(=O)C2COCC2c2ccc(Cl)cc2)CC1 (some centres not stated),280,
CC(C)(C)N1C[C@H](C(=O)N2CCC(CN3CCOC3=O)(C3CCCCC3)CC2)[C@@H](c2ccc(F)cc2F)C1,,IC50 (Melanocortin receptor 4 [3]): 14 nM; EC50 (Melanocortin receptor 4 [4]): 2 nM
Cc1ccc(N2CCN(C(=O)[C@@H]3CCO[C@@H]3c3ccc(Cl)cc3)CC2)c([C@@H](N)C(C)C)c1,590,
CC(C)[C@H](N)c1cccc(F)c1N1CCN(C(=O)[C@@H]2CCO[C@@H]2c2ccc(Cl)cc2)CC1,2100,
CC(C)C[C@H](N)c1cc(C(F)(F)F)ccc1N1CCN(C(=O)C(C)(C)Cc2ccc(Cl)cc2)CC1,,Ki (Melanocortin receptor 4 [5]): 810 nM
CC(C)C[C@H](N)c1cc(Cl)ccc1N1CCN(C(=O)[C@H]2CCO[C@@H]2c2ccc(Cl)cc2)CC1,280,
CC(C)C[C@H](N)c1cc(C(F)(F)F)ccc1N1CCN(C(=O)[C@H]2CCO[C@@H]2c2ccc(Cl)cc2)CC1,330,
CC(C)C[C@H](NC(=O)CCN(C)C)c1cc(C(F)(F)F)ccc1N1CCN(C(=O)C2C(=O)OCC2c2ccc(Cl)cc2)CC1 (some centres not stated),290,
CNCCC(=O)N[C@@H](CC(C)C)c1cc(C(F)(F)F)ccc1N1CCN(C(=O)[C@H]2CS(=O)(=O)C[C@@H]2c2ccc(Cl)cc2)CC1,190,
CC(C)C[C@H](NC(=O)CCN(C)C)c1cc(C(F)(F)F)ccc1N1CCN(C(=O)[C@H]2CSC[C@@H]2c2ccc(Cl)cc2)CC1,130,
CC(C)C[C@H](NC(=O)CCN)c1cc(C(F)(F)F)ccc1N1CCN(C(=O)C2C(=O)OCC2c2ccc(Cl)cc2)CC1 (some centres not stated),180,
CNCC(=O)N[C@@H](CC(C)C)c1cc(C(F)(F)F)ccc1N1CCN(C(=O)[C@H]2CSC[C@@H]2c2ccc(Cl)cc2)CC1,250,
CC(C)C[C@H](N)c1cc(C(F)(F)F)ccc1N1CCN(C(=O)C2C(=O)OCC2c2ccc(Cl)cc2)CC1 (some centres not stated),260,

# More lines, in order of falling Ki (Melanocortin receptor 4 [1]), values ahead:
Ki (Melanocortin receptor 4 [1]) [nM],SMILES,also measured
130,CC(C)C[C@H](NC(=O)[C@@H](C)N)c1cc(C(F)(F)F)ccc1N1CCN(C(=O)[C@H]2CSC[C@@H]2c2ccc(Cl)cc2)CC1,
120,CC(C)C[C@H](N)c1cc(C(F)(F)F)ccc1N1CCN(C(=O)[C@H]2C[S+]([O-])C[C@@H]2c2ccc(Cl)cc2)CC1 (some centres not stated),
120,Cc1ccc(N2CCN(C(=O)[C@@H]3CCO[C@@H]3c3ccc(Cl)cc3)CC2)c([C@@H](NC(=O)CCN(C)C)C(C)C)c1,
110,CC(C)C[C@H](NC(=O)CCN)c1cc(C(F)(F)F)ccc1N1CCN(C(=O)C2CC(=O)OC2c2ccc(Cl)cc2)CC1 (some centres not stated),
100,CC(C)C[C@H](NC(=O)[C@@H](C)N)c1cc(C(F)(F)F)ccc1N1CCN(C(=O)[C@H]2CS(=O)(=O)C[C@@H]2c2ccc(Cl)cc2)CC1,
87,CC(C)C[C@H](NC(=O)CCN(C)C)c1cc(Cl)ccc1N1CCN(C(=O)[C@@H]2CCO[C@@H]2c2ccc(Cl)cc2)CC1,
74,CC(C)C[C@H](NC(=O)CCN(C)C)c1cc(Cl)ccc1N1CCN(C(=O)[C@H]2CCO[C@@H]2c2ccc(Cl)cc2)CC1,
71,CC(C)C[C@H](NC(=O)CCN(C)C)c1cc(C(F)(F)F)ccc1N1CCN(C(=O)C2COCC2c2ccc(Cl)cc2)CC1 (some centres not stated),
43,Cc1ccc(N2CCN(C(=O)[C@H]3OCC[C@@H]3c3ccc(Cl)cc3)CC2)c([C@@H](NC(=O)CCN(C)C)C(C)C)c1,
40,CC(C)[C@H](NC(=O)CCN(C)C)c1cccc(F)c1N1CCN(C(=O)C2COCC2c2ccc(Cl)cc2)CC1 (some centres not stated),
38,CC(C)C[C@H](N)c1cc(C(F)(F)F)ccc1N1CCN(C(=O)[C@H]2CS(=O)(=O)C[C@@H]2c2ccc(Cl)cc2)CC1,IC50 (Melanocortin receptor 4 [2]): 690 nM
37,CC(C)[C@H](NC(=O)CCN(C)C)c1cccc(F)c1N1CCN(C(=O)[C@@H]2CS(=O)(=O)C[C@H]2c2ccc(Cl)cc2)CC1,
30,CC(C)[C@H](NC(=O)CCN(C)C)c1cccc(F)c1N1CCN(C(=O)[C@H]2COC[C@@H]2c2ccc(Cl)cc2)CC1,
28,CC(C)[C@H](NC(=O)CCN(C)C)c1cccc(F)c1N1CCN(C(=O)[C@@H]2COC[C@@H]2c2ccc(Cl)cc2)CC1,
10,Cc1ccc(N2CCN(C(=O)[C@@H]3OCC[C@@H]3c3ccc(Cl)cc3)CC2)c([C@@H](NC(=O)CCN(C)C)C(C)C)c1,IC50 (Melanocortin receptor 4 [2]): 530 nM
